Measured values: patent US20250136722A1, “CYTOTOXICITY TARGETING CHIMERAS” (GLAXOSMITHKLINE INTELLECTUAL PROPERTY DEVELOPMENT LIMITED, priority 2021, published 2025)
Values joined by “and” are separate entries in the source; they are usually repeats but may differ in a detail not shown here. Equal values may be shown once.

Assays:
[1] = target: Anti-cotinine antibody (SEQ ID NO: 11 / SEQ ID NO: 12, rabbit variable region with human IgG1 Fc domain); test: Binding of anti-cotinine antibody to ARM compounds by SPR, Biacore T200, 37° C. (Example 202); conditions: pH 7.4, rabbit variable region/human IgG1 Fc antibody captured on protein A
Procedure, shortened: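 Antibody captured on protein A chip. Compounds injected (3-fold, 5-point, top 200 nM) at 100 μL/min with 200 s association and 2000 s dissociation, at 37° C. in HEPES pH 7.4 buffer with 1% DMSO. Double-referenced data fit to 1:1 kinetics. Kd = koff/kon, reported as pKd, averaged over runs.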

[2] = target: T1, CHOK1 cells engineered to overexpress human CCR2 (Homo sapiens, UniProt P41597); test: Antibody dependent cellular cytotoxicity (ADCC) reporter assay (Example 199); assay type: cell-based; conditions: with anti-cotinine antibody SEQ ID NO: 11/12; CHOK1-human CCR2 target cells, Jurkat FcγRIIIa NFAT-luciferase reporter cells; 12-18 hours; read-out: ADCC Reporter Assay pEC50 (converted)
T1 construct: expressed in transfected cells; host or cells: CHOK1 cells
Procedure, shortened: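 CHOK1-hCCR2 target cells are co-incubated for 12–18 h with Jurkat FcγRIIIa/NFAT-luciferase reporter cells, ARM compound (1 pM–10 μM) and anti-cotinine antibody with a DE-mutant human IgG1 Fc (0.01–200 μg/mL). Luminescence is expressed as signal:background against no-compound wells; EC50 comes from nonlinear fit and is reported as pEC50, averaged across runs.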

Row | SMILES | pKd of Antibody for ARM Compound of Formula (I) [1] | EC50 [2]
1 | CC(C)N(C)[C@@H]1CC[C@H](N2CC[C@H](Nc3ncnc4ccc(C(F)(F)F)cc34)C2=O)[C@H](NC(=O)CCOCCNC(=O)COCCNC(=O)CCOCCNC(=O)[C@H]2CC(=O)N(C)[C@@H]2c2cccnc2)C1 [Example 163, (2S,3S)-N-(19-(((1R,2S,5R)-5-(Isopropyl(methyl)amino)-2-((S)-2-oxo-3-((6-(trifluoromethyl)quinazolin-4-yl)amino)pyrrolidin-1-yl)cyclohexyl)amino)-6,12,19-trioxo-3,10,16-trioxa-7,13-diazanonadecyl)-1-methyl-5-oxo-2-(pyridin-3-yl)pyrrolidine-3-carboxamide] | 9.07 | 0.631 nM
2 | CC(C)N(C)[C@@H]1CC[C@H](N2CC[C@H](Nc3ncnc4ccc(C(F)(F)F)cc34)C2=O)[C@H](NC(=O)CCCNc2c(NCCOCCOCCOCCOCCNC(=O)[C@H]3CC(=O)N(C)[C@@H]3c3cccnc3)c(=O)c2=O)C1 [Example 164, (2S,3S)-N-(14-((2-((4-(((1R,2S,5R)-5-(Isopropyl(methyl)amino)-2-((S)-2-oxo-3-((6-(trifluoromethyl)quinazolin-4-yl)amino)pyrrolidin-1-yl)cyclohexyl)amino)-4-oxobutyl)amino)-3,4-dioxocyclobut-1-en-1-yl)amino)-3,6,9,12-tetraoxatetradecyl)-1-methyl-5-oxo-2-(pyridin-3-yl)pyrrolidine-3-carboxamide] | 9.3225 | 1.35 nM
3 | CC(C)N(C)[C@@H]1CC[C@H](N2CC[C@H](Nc3ncnc4ccc(C(F)(F)F)cc34)C2=O)[C@H](NC(=O)CCOCCOCCOCCNc2c(NCCNC(=O)[C@H]3CC(=O)N(C)[C@@H]3c3cccnc3)c(=O)c2=O)C1 [Example 168, (2S,3S)-N-(2-((2-((2-(2-(2-(3-(((1R,2S,5R)-5-(Isopropyl(methyl)amino)-2-((S)-2-oxo-3-((6-(trifluoromethyl)quinazolin-4-yl)amino)pyrrolidin-1-yl)cyclohexyl)amino)-3-oxopropoxy)ethoxy)ethoxy)ethyl)amino)-3,4-dioxocyclobut-1-en-1-yl)amino)ethyl)-1-methyl-5-oxo-2-(pyridin-3-yl)pyrrolidine-3-carboxamide] | 9.06 | 0.793 nM
4 | CC(C)N(C)[C@@H]1CC[C@H](N2CC[C@H](Nc3ncnc4ccc(C(F)(F)F)cc34)C2=O)[C@H](NC(=O)[C@H]2CC[C@@H](NC(=O)COCCOCCNC(=O)CNC(=O)[C@H]3CC(=O)N(C)[C@@H]3c3cccnc3)CC2)C1 [Example 171, (2S,3S)-N-(2-((2-(2-(2-(((1S,4s)-4-(((1R,2S,5R)-5-(Isopropyl(methyl)amino)-2-((S)-2-oxo-3-((6-(trifluoromethyl)quinazolin-4-yl)amino)pyrrolidin-1-yl)cyclohexyl)carbamoyl)cyclohexyl)amino)-2-oxoethoxy)ethoxy)ethyl)amino)-2-oxoethyl)-1-methyl-5-oxo-2-(pyridin-3-yl)pyrrolidine-3-carboxamide] | 8.7865 | 0.802 nM
5 | CC(C)N(C)[C@@H]1CC[C@H](N2CC[C@H](Nc3ncnc4ccc(C(F)(F)F)cc34)C2=O)[C@H](NC(=O)CCCC(=O)NCCCOCCCNC(=O)CCCNC(=O)[C@H]2CC(=O)N(C)[C@@H]2c2cccnc2)C1 [Example 173, N^1-((1R,2S,5R)-5-(Isopropyl(methyl)amino)-2-((S)-2-oxo-3-((6-(trifluoromethyl)quinazolin-4-yl)amino)pyrrolidin-1-yl)cyclohexyl)-N5-(3-(3-(4-((2S,3S)-1-methyl-5-oxo-2-(pyridin-3-yl)pyrrolidine-3-carboxamido)butanamido)propoxy)propyl)glutaramide] | 9.1415 | 0.794 nM
6 | CC(C)N(C)[C@@H]1CC[C@H](N2CC[C@H](Nc3ncnc4ccc(C(F)(F)F)cc34)C2=O)[C@H](NC(=O)[C@H]2CC[C@@H](NC(=O)CCOCCNC(=O)COCCCNC(=O)[C@H]3CC(=O)N(C)[C@@H]3c3cccnc3)CC2)C1 [Example 175, (2S,3S)-N-(3-(2-((2-(3-(((1 S,4s)-4-(((1R,2S,5R)-5-(Isopropyl(methyl)amino)-2-((S)-2-oxo-3-((6-(trifluoromethyl)quinazolin-4-yl)amino)pyrrolidin-1-yl)cyclohexyl)carbamoyl)cyclohexyl)amino)-3-oxopropoxy)ethyl)amino)-2-oxoethoxy)propyl)-1-methyl-5-oxo-2-(pyridin-3-yl)pyrrolidine-3-carboxamide] | 9.244 | 0.794 nM and 0.398 nM
7 | CC(C)N(C)[C@@H]1CC[C@H](N2CC[C@H](Nc3ncnc4ccc(C(F)(F)F)cc34)C2=O)[C@H](NC(=O)CCCC(=O)N[C@H]2CC[C@@H](CNC(=O)CCOCCNC(=O)[C@H]3CC(=O)N(C)[C@@H]3c3cccnc3)CC2)C1 [Example 179, N^1-((1R,2S,5R)-5-(isopropyl(methyl)amino)-2-((S)-2-oxo-3-((6-(trifluoromethyl)quinazolin-4-yl)amino)pyrrolidin-1-yl)cyclohexyl)-N^5-((1R,4S)-4-((3-(2-((2S,3S)-1-methyl-5-oxo-2-(pyridin-3-yl)pyrrolidine-3-carboxamido)ethoxy)propanamido)methyl)cyclohexyl)glutaramide] | 9.24 | 0.724 nM
8 | CC(C)N(C)[C@@H]1CC[C@H](N2CC[C@H](Nc3ncnc4ccc(C(F)(F)F)cc34)C2=O)[C@H](NC(=O)COCCNC(=O)CCNC(=O)CCOCCOCCNC(=O)[C@H]2CC(=O)N(C)[C@@H]2c2cccnc2)C1 [Example 181, (2S,3S)-N-(1-(((1R,2S,5R)-5-(Isopropyl(methyl)amino)-2-((S)-2-oxo-3-((6-(trifluoromethyl)quinazolin-4-yl)amino)pyrrolidin-1-yl)cyclohexyl)amino)-1,7,11-trioxo-3,14,17-trioxa-6,10-diazanonadecan-19-yl)-1-methyl-5-oxo-2-(pyridin-3-yl)pyrrolidine-3-carboxamide] | 9.1645 | 0.675 nM
9 | CC(C)N(C)[C@@H]1CC[C@H](N2CC[C@H](Nc3ncnc4ccc(C(F)(F)F)cc34)C2=O)[C@H](NC(=O)[C@H]2CC[C@@H](NC(=O)CCOCCNC(=O)CCCCNC(=O)[C@H]3CC(=O)N(C)[C@@H]3c3cccnc3)CC2)C1 [Example 198, (2S,3S)-N-(5-((2-(3-(((1S,4s)-4-(((1R,2S,5R)-5-(Isopropyl(methyl)amino)-2-((S)-2-oxo-3-((6-(trifluoromethyl)quinazolin-4-yl)amino)pyrrolidin-1-yl)cyclohexyl)carbamoyl)cyclohexyl)amino)-3-oxopropoxy)ethyl)amino)-5-oxopentyl)-1-methyl-5-oxo-2-(pyridin-3-yl)pyrrolidine-3-carboxamide] | 9.3835 | 0.398 nM and 0.316 nM
10 | CC(C)N(C)[C@@H]1CC[C@H](N2CC[C@H](Nc3ncnc4ccc(C(F)(F)F)cc34)C2=O)[C@H](NC(=O)[C@H]2CC[C@@H](NC(=O)COCCNC(=O)CCOCCNC(=O)[C@H]3CC(=O)N(C)[C@@H]3c3cccnc3)CC2)C1 [compound 152] | 9.111 | 1.4 nM
11 | CC(C)N(C)[C@@H]1CC[C@H](N2CC[C@H](Nc3ncnc4ccc(C(F)(F)F)cc34)C2=O)[C@H](NC(=O)CCOCCOCCOCCNc2c(NCCCNC(=O)[C@H]3CC(=O)N(C)[C@@H]3c3cccnc3)c(=O)c2=O)C1 [compound 169] | 9.0085 | 1.05 nM
12 | CC(C)N(C)[C@@H]1CC[C@H](N2CC[C@H](Nc3ncnc4ccc(C(F)(F)F)cc34)C2=O)[C@H](NC(=O)CCCC(=O)N[C@H]2CC[C@H](CNC(=O)CCOCCNC(=O)[C@H]3CC(=O)N(C)[C@@H]3c3cccnc3)CC2)C1 [compound 180] | 9.249 | 0.456 nM
